Common to all, as to assay type: in vivo, maize
Data set [1] concerns ZEAMA Abraxas. The experiment in a line: Tank-mix; post-emergence, crop damage with and without safener. Conditions: for HER effect + SAF / HER effect: Final assessment; for HER effect: no safener. A digest of the protocol: (§1)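 Crops in sandy loam in the greenhouse were sprayed at the 1–3-leaf stage, 2–3 weeks after sowing, with herbicide/safener combinations or the single actives at various dosages in 300 l/ha water. Injury was scored visually 1–3 weeks after treatment as % versus untreated plants (0% none, 100% complete kill).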

For data set [2], the system named is ZEAMA Sileno. The experiment in a line: Treatment 1 day before (safener applied one day before herbicide, post-emergence). Also noted: key to Reduction [Difference]: percentage points of visually scored % crop damage vs untreated control. The note with it: for Reduction [%] / Reduction [Difference]: cyprosulfamide 100 g a.i./ha 1 day before; for HER effect + SAF: cyprosulfamide 100 g a.i./ha applied 1 day before; for HER effect + SAF / HER effect: Final assessment; for HER effect: no safener. The text has this:
Seeds of crops (spring wheat, TRZAS; spring barley, HORVS; maize, ZEAMA) were placed in sandy loam soil in pots of a diameter of 7-8 cm, covered with soil, and cultivated in a greenhouse under good growth conditions until plants were at the 1-3 leaf stage (BBCH 11-13). For split safener and herbicide treatment, first the safener was applied followed by the herbicide treatment on the following day. The safener and herbicides were formulated as WP and sprayed onto the green parts of the plants as an aqueous suspension at an equivalent water application rate of 300 1/ha, with addition of wetting agent and adjuvants (e.g. Mero, 1.5 1/ha; ammonium sulphate, 2 kg/ha). An equivalent set of plants was treated with the herbicides but without the prior safener treatment.
After application, the test plants were kept in the greenhouse under good growth conditions. 10 and 21 days after treatment (DAT) with the herbicide, % crop damage observed on the treated plants was scored visually in comparison to control plants that had not received any safener or herbicide treatment.

Data set [3] has as its system ZEAMA Sileno. Nature of the data set: Seed treatment with safener; post-emergence herbicide application. More on the design: Reduction [Difference]: scale not given here. Conditions: Final assessment; for Reduction [%] / Reduction [Difference]: Cyprosulfamide 0.5 g a.i./kg seed; for Reduction [Difference]: damage without safener - damage with safener; for HER effect + SAF (crop damage with safener): Cyprosulfamide seed treatment 0.5 g a.i./kg seed; for HER effect (crop damage, herbicide without safener): no safener. A digest of the protocol: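 Maize seeds slurry-coated with WP safener (g a.i./kg seed) or left untreated, sown in sandy loam and grown in greenhouse. WP herbicide sprayed post-emergence at BBCH11-13 in 300 l/ha water with wetting agent and adjuvants (e.g. Mero 1.5 l/ha, ammonium sulphate 2 kg/ha); means of at least 2 replicates.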

Data set [4] concerns ZEAMA Sileno. Nature of the data set: Tank-mix; post-emergence, crop damage with and without safener. The note with it: for Reduction [%] / Reduction [Difference]: cyprosulfamide 50 g a.i./ha; for HER effect + SAF / HER effect: Final assessment; for HER effect: no safener. The procedure, abridged: as §1
Where [5] appears, read: HER 32 g a.i./ha, cyprosulfamide 100 g a.i./ha.
[6] abbreviates: HER 2 g a.i./ha, cyprosulfamide 50 g a.i./ha.
[7] abbreviates: HER dose 2 g a.i./ha + cyprosulfamide 50 g a.i./ha tank-mix.
Setting [8] is: HER 8 g a.i./ha, cyprosulfamide 50 g a.i./ha.
Where [9] appears, read: HER dose 8 g a.i./ha + cyprosulfamide 50 g a.i./ha tank-mix.

Consider `COCCOC(=O)C1C=CC(NC(=O)C2(CCl)CC(c3cc(F)cc(F)c3)=NO2)C1` (stereo not drawn) [Example 1.1], for which the “Reduction [%]” value in data set [1] (setting [5]) was determined as 84%; in data set [2] (HER 32 g a.i./ha) it was 79%; in data set [3] (HER dose 8 g a.i./ha), 100%; in data set [3] (HER dose 32 g a.i./ha), 100%. The “Reduction [Difference]” value in data set [1] (setting [5]) was found to be 80; in data set [2] (HER 32 g a.i./ha) it was 55; in data set [3] (HER dose 8 g a.i./ha), 30; in data set [3] (HER dose 32 g a.i./ha) it was 70. Besides, the “HER effect + SAF” value in data set [1] (HER dose 32 g a.i./ha + cyprosulfamide 100 g a.i./ha tank-mix) and in data set [2] (HER dose 32 g a.i./ha) was 15% throughout. In addition, the HER effect in data set [1] (HER dose 32 g a.i./ha) is listed as 95%; in data set [2] (HER dose 32 g a.i./ha), 70%. The “HER effect + SAF (crop damage with safener)” value in data set [3] (HER dose 8 g a.i./ha) and in data set [3] (HER dose 32 g a.i./ha) was 0% throughout. Further, the “HER effect (crop damage, herbicide without safener)” value in data set [3] (HER dose 8 g a.i./ha) worked out at 30%; in data set [3] (HER dose 32 g a.i./ha) it was 70%.

`COC(=O)C1C=CC(NC(=O)C2(C)CC(c3cc(F)cc(F)c3)=NO2)C1` (stereo not drawn) [Example 1.19]: the “Reduction [%]” value came out at 80% in data set [1] (setting [6]), 88% in data set [2] (HER 32 g a.i./ha), 75% in data set [3] (HER dose 8 g a.i./ha) and 75% in data set [3] (HER dose 32 g a.i./ha). Further, the “Reduction [Difference]” value in data set [1] (setting [6]) is 60; in data set [2] (HER 32 g a.i./ha), 70; in data set [3] (HER dose 8 g a.i./ha) it was 30; in data set [3] (HER dose 32 g a.i./ha) it was 60. For the same molecule, the “HER effect + SAF” value in data set [1] (setting [7]) amounted to 15%; in data set [2] (HER dose 32 g a.i./ha) it was 10%. The HER effect in data set [1] (HER dose 2 g a.i./ha) amounted to 75%; in data set [2] (HER dose 32 g a.i./ha), 80%. Moreover, the “HER effect + SAF (crop damage with safener)” value in data set [3] (HER dose 8 g a.i./ha) was 10%; in data set [3] (HER dose 32 g a.i./ha), 20%. Also, the “HER effect (crop damage, herbicide without safener)” value in data set [3] (HER dose 8 g a.i./ha) stood at 40%; in data set [3] (HER dose 32 g a.i./ha), 80%.

On to `COC(=O)C1C=CC(NC(=O)C2(C)CC(c3cc(F)cc(Cl)c3)=NO2)C1` (stereo not drawn) [Example 1.21], for which the “Reduction [%]” value in data set [1] (setting [8]) was determined as 71%; in data set [2] (HER 32 g a.i./ha) it was 57%; in data set [3] (HER dose 32 g a.i./ha), 71%. Further, the “Reduction [Difference]” value in data set [1] (setting [8]) amounted to 25; in data set [2] (HER 32 g a.i./ha), 20; in data set [3] (HER dose 32 g a.i./ha), 25. The “HER effect + SAF” value in data set [1] (setting [9]) amounted to 10%; in data set [2] (HER dose 32 g a.i./ha), 15%. Also, the HER effect in data set [1] (HER dose 8 g a.i./ha) and in data set [2] (HER dose 32 g a.i./ha) was 35% in each case. In addition, the “HER effect + SAF (crop damage with safener)” value in data set [3] (HER dose 32 g a.i./ha) was 10%. For the same molecule, the “HER effect (crop damage, herbicide without safener)” value in data set [3] (HER dose 32 g a.i./ha) amounted to 35%.

On to `CCCSCCOC(=O)C1C=CC(NC(=O)C2(C)CC(c3cc(F)cc(F)c3)=NO2)C1` (stereo not drawn) [Example 1.34], for which the “Reduction [%]” value turned out to be 50% in data set [1] (setting [6]); 60% in data set [2] (HER 8 g a.i./ha); 44% in data set [2] (HER 32 g a.i./ha); 100% in data set [3] (HER dose 2 g a.i./ha); 80% in data set [3] (HER dose 8 g a.i./ha); 78% in data set [3] (HER dose 32 g a.i./ha). The “Reduction [Difference]” value in data set [1] (setting [6]) is on record as 25; in data set [2] (HER 8 g a.i./ha), 30; in data set [2] (HER 32 g a.i./ha), 20; in data set [3] (HER dose 2 g a.i./ha), 20; in data set [3] (HER dose 8 g a.i./ha), 40; in data set [3] (HER dose 32 g a.i./ha), 35. Also, the “HER effect + SAF” value was determined as 25% in data set [1] (setting [7]), 20% in data set [2] (HER dose 8 g a.i./ha) and 25% in data set [2] (HER dose 32 g a.i./ha). Also, the HER effect came out at 50% in data set [1] (HER dose 2 g a.i./ha), 50% in data set [2] (HER dose 8 g a.i./ha) and 45% in data set [2] (HER dose 32 g a.i./ha). Further, the “HER effect + SAF (crop damage with safener)” value in data set [3] (HER dose 2 g a.i./ha) was found to be 0%; in data set [3] (HER dose 8 g a.i./ha), 10%; in data set [3] (HER dose 32 g a.i./ha) it was 10%. For the same molecule, the “HER effect (crop damage, herbicide without safener)” value in data set [3] (HER dose 2 g a.i./ha) was found to be 20%; in data set [3] (HER dose 8 g a.i./ha), 50%; in data set [3] (HER dose 32 g a.i./ha), 45%.

For the molecule `CC1(C(=O)NC2C=CC(C(=O)O)C2)CC(c2cc(F)cc(F)c2)=NO1` (stereo not drawn) [Example 1.36], the “Reduction [%]” value is 50% in data set [4] (HER 2 g a.i./ha); 63% in data set [4] (HER 8 g a.i./ha); 63% in data set [2] (HER 2 g a.i./ha); 69% in data set [2] (HER 8 g a.i./ha); 67% in data set [2] (HER 32 g a.i./ha); 88% in data set [3] (HER dose 2 g a.i./ha). For the same molecule, the “Reduction [%]” value in data set [3] (HER dose 8 g a.i./ha) is 94%; in data set [3] (HER dose 32 g a.i./ha), 87%. Moreover, the “Reduction [Difference]” value is 20 in data set [4] (HER 2 g a.i./ha, damage without safener - damage with safener); 50 in data set [4] (HER 8 g a.i./ha); 25 in data set [2] (HER 2 g a.i./ha); 55 in data set [2] (HER 8 g a.i./ha); 50 in data set [2] (HER 32 g a.i./ha); 35 in data set [3] (HER dose 2 g a.i./ha). Further, the entries for the “Reduction [Difference]” value in data set [3] (HER dose 8 g a.i./ha) and in data set [3] (HER dose 32 g a.i./ha) were 75 and 65, respectively. Moreover, the “HER effect + SAF” value in data set [4] (setting [7]) is reported as 20%; in data set [4] (setting [9]) it was 30%; in data set [2] (HER dose 2 g a.i./ha) it was 15%; in data set [2] (HER dose 8 g a.i./ha), 25%; in data set [2] (HER dose 32 g a.i./ha), 25%. The HER effect in data set [4] (HER dose 2 g a.i./ha, 0% = no injury, 100% = complete kill) was determined as 40%; in data set [4] (HER dose 8 g a.i./ha) it was 80%; in data set [2] (HER dose 2 g a.i./ha), 40%; in data set [2] (HER dose 8 g a.i./ha), 80%; in data set [2] (HER dose 32 g a.i./ha), 75%. The entries for the “HER effect + SAF (crop damage with safener)” value in data set [3] (HER dose 2 g a.i./ha), in data set [3] (HER dose 8 g a.i./ha) and in data set [3] (HER dose 32 g a.i./ha) were 5%, 5% and 10%, respectively. The “HER effect (crop damage, herbicide without safener)” value is 40% in data set [3] (HER dose 2 g a.i./ha), 80% in data set [3] (HER dose 8 g a.i./ha) and 75% in data set [3] (HER dose 32 g a.i./ha).

As for `CC1(C(=O)NC2C=CC(C(=O)OCCSC(F)(F)F)C2)CC(c2cc(F)cc(F)c2)=NO1` (stereo not drawn) [Example 1.38], the “Reduction [%]” value in data set [1] (setting [6]) came to 42%; in data set [2] (HER 32 g a.i./ha) it was 73%; in data set [3] (HER dose 2 g a.i./ha), 100%; in data set [3] (HER dose 8 g a.i./ha), 100%; in data set [3] (HER dose 32 g a.i./ha), 100%. In addition, the “Reduction [Difference]” value in data set [1] (setting [6]) came to 25; in data set [2] (HER 32 g a.i./ha), 55; in data set [3] (HER dose 2 g a.i./ha) it was 25; in data set [3] (HER dose 8 g a.i./ha), 35; in data set [3] (HER dose 32 g a.i./ha), 75. Further, the results for the “HER effect + SAF” value in data set [1] (setting [7]) and in data set [2] (HER dose 32 g a.i./ha) were 35% and 20%, respectively. Moreover, the figures for the HER effect in data set [1] (HER dose 2 g a.i./ha) and in data set [2] (HER dose 32 g a.i./ha) were 60% and 75%, respectively. Moreover, the “HER effect + SAF (crop damage with safener)” value in data set [3] (HER dose 2 g a.i./ha), in data set [3] (HER dose 8 g a.i./ha) and in data set [3] (HER dose 32 g a.i./ha) was 0% throughout. Further, the “HER effect (crop damage, herbicide without safener)” value in data set [3] (HER dose 2 g a.i./ha) came to 25%; in data set [3] (HER dose 8 g a.i./ha), 35%; in data set [3] (HER dose 32 g a.i./ha), 75%.

(Values after patent publication US20230240297A1, “SELECTIVE HERBICIDES BASED ON SUBSTITUTED ISOXAZOLIN CARBOXAMIDES AND CYPROSULFAMIDE” (Bayer Aktiengesellschaft, priority 2020, published 2023).)
